{
  "source": "patent US11753453B2",
  "about": "“Peptide kinase inhibitors and methods of use thereof” (B.G. NEGEV TECHNOLOGIES AND APPLICATIONS LTD., priority 2017, dated 2023)",
  "molecules": {"B1": {"name": "SEQ ID NO: 33: shRNA sequence for targeting PKCη expression (nucleic acid)", "chain": "GATCCCCGGCCCGTCTTAACTCCGATTGATCTCGATCAATCGGAGTTAAGACGGGTTTTTG"}},
  "key": {"[1]": {"system": "MDA-MB-231", "experiment": "PrestoBlue cell viability/proliferation assay, MDA-MB-231", "assay_type": "cell-based", "settings": "compared with uPEP9-26, uPEP18-26 and ηPS", "experimental": "(§1) FIGS. 4A-4D show the ability of the peptide encoded by uORF2 (uPEP21-26) to reduce viability of breast cancer and glioblastoma cells. FIG. 4A: MCF-7 cells were seeded onto 48-well plates. 24 hours later, the cells were incubated for 24 hours with the indicated peptides). Following incubation, the medium with tested peptide was gently aspirated from each well and 25 μL of PrestoBlue reagent was added to each well of the 48-well plate and incubated at 37° C. in 5% CO2 for 15 min, as recommended. The absorbance was detected by ‘Infinite M200 PRO’ reader. FIGS. 4B-4D are the results of experiments identical to that described by FIG. 4A, but performed on cells lines U251 MG (glioblastoma cell line), MDA-MB-231 and MCF10A, respectively.\n(§2) MCF-7 and MDA-MB-231 cells were seeded at 2×10^4 cells/well in 48-well plates. After 24 h serum free-media containing the peptides was added to the wells for 4 h. Then, medium with serum was added and the plate was incubated for 24 h at incubator (5% CO2 humidified atmosphere at 37° C.). Following incubation, the medium with tested peptide was gently aspirated from each well and 25 μL of PrestoBlue™ reagent (Thermo #A13261) was added to each well of the 48-well plate and incubated at 37° C. in 5% CO2 for 15 min, as recommended. The absorbance was recorded at 570 nm and detected by ‘Infinite M200 PRO’ reader. […]"}, "[2]": {"system": "MDA-MB-231 (breast cancer)", "experiment": "Scratch (wound healing) assay, MDA-MB-231", "assay_type": "cell-based", "settings": "MDA-MB-231, scratch assay", "experimental": "(§3) FIG. 3A is a photograph taken from the scratch assay performed on MDA-MB-231 cells. Cells were seeded in 24-well plate and incubated for 4 hours with the indicated peptides in a free-serum media. After 4 hours, a scratch was made with a 200 μl pipette tip. Photographs of a selected area of each scratch were taken at indicated time points. Areas were measured by ImageJ software. FIGS. 3B-3D are graphs representing the analysis of the scratch assay performed as described in […] on cell lines MDA-MB-231, MCF-7 and MCF10A, respectively. All values were normalized to time 0 of each well and presented in percentage.\n(§4) MCF-7 and MDA-MB-231 cells were seeded in 24-well plates and grown to full confluency. Subsequently, media with low serum (2% to MCF-7 and 0.1% to MDA-MB-231) containing the peptides were added to the wells for 4 h. Then, a scratch was placed in the middle of the well with a sterile 200 μl pipette tip (Eppendorf). After washing once with PBS, the respective treatments were returned. Wells were photographed at total magnification of 4× with an IX70 Olympus Optical light microscope (Tokyo, Japan). 3 Images for each well were taken every 24 h.\n(§5) The in vitro effect of PKCeta uORF2 on cancer cell migration was tested […] by a standard scratch test assay, as described above. […]"}, "[3]": {"system": "U251 MG (glioblastoma cell line)", "experiment": "PrestoBlue cell viability/proliferation assay, U251 MG", "assay_type": "cell-based", "settings": "compared with uPEP9-26, uPEP18-26 and ηPS", "experimental": "as §1, §2"}, "[4]": {"system": "PKCs from the novel PKC subfamily", "experiment": "In vitro kinase assay on PKC subfamilies", "assay_type": "biochemical", "settings": "peptide at 2 μM; normalized to control without peptide", "experimental": "(§6) FIG. 2A is a schematic view of the peptides derived from PKCη and used in the examples described herein. uPEP1-26 refers to the complete peptide encoded by uORF2; uPEP9-26 and uPEP18-26 refer to control peptides, which lack the PS motif; ηPS refer to a peptide containing the internal PS domain of PKCη. […] The kinase activity of PKCη was measured using Myelin Basic Protein (p-MBP) as a substrate and γ-^32P radioactive kinase assays. All values were normalized to the control sample without a peptide (Cont.). The data shown are the means of three separate experiments, and is also presented as the gel in FIG. 2C. FIG. 2D: Kinase assays were conducted as described in FIG. 2B, using uPEP1-26 at 2 μM concentration are depicted. All values were normalized to the control sample (without peptide). The data shown are the means of three separate experiments.\n(§7) Immunoprecipitations were performed by using pre-absorbed mAbs on protein A/G-agarose beads for 1 h at room temperature. Excess Abs was removed by 3 washes in cold phosphate buffered saline (PBS) and Ab-coated beads were incubated with cell lysates overnight at 4° C. Immune complexes were precipitated by centrifugation followed by extensive washing with RIPA buffer without SDS (10 mM Tris-HCl pH 8.0, 100 mM NaCl, 5 mM EGTA, 1% NP-40, 45 mM β-mercaptoethanol, and 50 mM NaF). […] Kinase activity was evaluated with exposing reagents. […]"}, "[5]": {"target": "T1, PKCη (Homo sapiens, UniProt P24723)", "T1 construct": "HA; expressed in transfected cells", "T1 sequence (P24723 whole entry)": "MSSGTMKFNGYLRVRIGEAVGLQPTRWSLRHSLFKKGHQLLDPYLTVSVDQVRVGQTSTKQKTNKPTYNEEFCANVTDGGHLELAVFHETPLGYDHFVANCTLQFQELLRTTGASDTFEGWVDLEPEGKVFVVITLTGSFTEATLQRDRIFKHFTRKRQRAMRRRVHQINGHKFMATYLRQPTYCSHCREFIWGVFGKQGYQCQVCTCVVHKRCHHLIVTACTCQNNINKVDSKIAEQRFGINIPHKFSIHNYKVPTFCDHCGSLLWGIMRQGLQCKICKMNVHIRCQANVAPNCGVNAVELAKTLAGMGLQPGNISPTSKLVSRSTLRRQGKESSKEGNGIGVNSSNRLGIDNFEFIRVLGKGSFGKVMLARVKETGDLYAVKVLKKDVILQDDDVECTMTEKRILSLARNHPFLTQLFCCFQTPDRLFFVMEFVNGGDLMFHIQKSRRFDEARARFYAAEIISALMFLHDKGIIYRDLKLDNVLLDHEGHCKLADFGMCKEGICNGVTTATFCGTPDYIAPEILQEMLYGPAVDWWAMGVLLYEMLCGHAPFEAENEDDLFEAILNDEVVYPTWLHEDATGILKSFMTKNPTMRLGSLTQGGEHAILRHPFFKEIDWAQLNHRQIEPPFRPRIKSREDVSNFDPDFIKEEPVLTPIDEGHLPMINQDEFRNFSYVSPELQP", "experiment": "In vitro kinase assay of PKCη with Myelin Basic Protein as substrate", "assay_type": "biochemical", "settings": "p-MBP, γ-32P radioactive kinase assay; compared to control peptide uPEP9-26 and ηPS; peptides 2 or 10 μM", "experimental": "as §6, §7"}, "[6]": {"system": "MCF7 (breast cancer)", "experiment": "Scratch (wound healing) assay, MCF7", "assay_type": "cell-based", "experimental": "as §3, §4, §5"}, "[7]": {"system": "MCF7", "experiment": "PrestoBlue cell viability/proliferation assay, MCF7", "assay_type": "cell-based", "settings": "compared with uPEP9-26, uPEP18-26 and ηPS", "experimental": "as §1, §2"}, "[8]": {"system": "MCF-7", "experiment": "XTT cell viability assay, MCF-7", "assay_type": "cell-based", "settings": "5 μM and 10 μM, compared to the other peptides", "experimental": "(§8) FIGS. 6A-6C show the efficacy of uORF2-encoded peptide mutated at position 10 (uPEP1-26[c/a]) in reducing cell viability on various cell lines. FIG. 6A: MCF-7 cells were seeded in 96 well plate and incubated for 24 hours with the indicated peptides. After 24 hours, the proliferation rate was monitored using XTT kit (Biological Industries, Israel) according to the manufacturer's instructions.\n(§9) Cells were seeded on 96-wells plate at a cell density of 20,000 cells/well and were grown for 48 hours. Cells were treated as indicated for 48 hours. A XTT (#20-300-1000, Biological Industries) reaction solution was prepared (containing the XTT and activation solutions) and added (50 μl/well) into cell medium for 2-4 hours at 37° C. The plate was immediately read in an ELISA plate reader at 450-500 nm. Background reading was performed at 630 nm, and the results calculated as the differences between the values.\n(§10) A uPEP21-26[10C/A] mutation of the PKCeta uORF2 peptide (SEQ ID NO: 1) was synthesized containing an alanine substitution at Cys-10, herein referred to as SEQ ID No 5. Cell lines MCF-7 (FIG. 6A), MDA-MB-231 (FIG. 6B) and HeLa (FIG. 6C) were treated with uPEP218-26, uPEP21-26, uPEP21-26[10C/A], uPEP21-17 and ηPS at doses of 5 μM and 10 μM in order to determine cell proliferation."}, "[9]": {"system": "HeLa", "experiment": "XTT cell viability assay, HeLa", "assay_type": "cell-based", "settings": "5 μM and 10 μM, compared to the other peptides", "experimental": "as §8, §9, §10"}, "[10]": {"system": "MDA-MB-231", "experiment": "XTT cell viability assay, MDA-MB-231", "assay_type": "cell-based", "settings": "5 μM and 10 μM, compared to the other peptides", "experimental": "as §8, §9, §10"}, "[11]": {"system": "4T1 cells", "experiment": "Breast 4T1 mouse model with PKCη knockdown cells", "assay_type": "in vivo", "settings": "4T1 cells expressing shRNA vs scrambled control, female BALB/c mice", "experimental": "FIG. 7A: 4T1 cells expressing shPKCη (SEQ ID NO: 33) or scrambled control were injected into mammary fat pad of 8-week-old female BALB/c mice. Tumor diameters were measured every week with vernier calipers. FIG. 7B: The mice were sacrificed after 8 weeks, and number of metastasis formed in the lungs was counted using Bouin's solutions. Error bars represent the mean±s.e.m, statistical analysis indicates for statistical significance in two-tailed, unpaired sample t-test.\nMice were anesthetized with a solution of 10 ml/mg Ketamine and 1.17 ml/mg xylazine, in saline. Anesthesia was injected intraperitoneally (IP) after sterilizing the inoculation area of the mice with 70% ethanol solution. Using a 27-gauge needle, 4T1 control and shPKCη knockdown cells (transfected with SEQ ID NOs 33-35 or scrambled control (obtained from the ATCC) were injected a few millimeters from the nipple, underneath the skin (120,000 cells in 50 μl per mouse).\nEach week, mice were tested for tumors and the primary tumors were examined by caliper. After 10 weeks, mice were euthanized and examined for metastases in lung, liver and spleen, and samples were prepared for immuno staining.\nTo test the in vivo effects of PKCeta on tumor formation, the establishment and growth of breast cancer cells with (4T1 control cells) and without PKCeta (PKCeta knockdown 4T1 cells) was compared."}},
  "data": [
    {"molecule": "uPEP1-26: full-length human PKCeta uORF2 peptide, 26 amino acids; MASRGALRRXLSPGLPRLLHLSRGLA wherein X is C (MASRGALRRCLSPGLPRLLHLSRGLA; listed as Homo sapiens)", "values": [
      {"measurement": "inhibition of cell proliferation", "setting": "[1]", "result": "inhibited cell proliferation the most"},
      {"measurement": "inhibition of cell migration", "setting": "[2]", "result": "inhibited migration"},
      {"measurement": "inhibition of cell proliferation", "setting": "[3]", "result": "inhibited cell proliferation the most"},
      {"measurement": "inhibition of kinase activity of PKCs from the novel PKC subfamily", "setting": "[4]", "result": "strongly inhibits"},
      {"measurement": "inhibition of kinase activity of PKCη", "setting": "[5]", "result": "strongest inhibitor"},
      {"measurement": "inhibition of cell migration", "setting": "[6]", "result": "inhibited migration"},
      {"measurement": "inhibition of cell proliferation", "setting": "[7]", "result": "inhibited cell proliferation the most"}
    ]},
    {"molecule": "uPEP1-26[10C/A]: full-length PKCeta derived uORF peptide with alanine substitution at Cys-10; MASRGALRRXLSPGLPRLLHLSRGLA wherein X is A (MASRGALRRALSPGLPRLLHLSRGLA)", "values": [
      {"measurement": "reduction of cell viability", "setting": "[8]", "result": "efficiently reduced cell viability"},
      {"measurement": "reduction of cell viability", "setting": "[9]", "result": "efficiently reduced cell viability"},
      {"measurement": "reduction of cell viability", "setting": "[10]", "result": "efficiently reduced cell viability"}
    ]},
    {"molecule": "B1", "values": [
      {"measurement": "formation of tumor metastases (lungs)", "setting": "[11]", "result": "inhibited the formation of tumor metastases"},
      {"measurement": "tumor volume over time", "setting": "[11]; mammary fat pad", "result": "significant inhibition in tumor size"}
    ]}
  ]
}
